From patent US10662164B2, “Non-beta lactam antibiotics” (University of Notre Dame du Lac, priority 2014, dated 2020)
Converted amounts (≈) assume the structure as drawn.

What was measured:
S. aureus ATCC 29213 = assay: MIC determination; format: cell-based, Staphylococcus aureus; details: for MIC: Staphylococcus aureus, ATCC29213, Table 3.1 and SAR text, compounds of Schemes 2-4, read-out: S. aureus ATCC 29213 MIC; for antibacterial activity in words (SAR, ring A derivatives): S. aureus ATCC 29213, compounds of Schemes 3-4
E. faecium NCTC 7171 = assay: MIC determination; format: cell-based, Enterococcus faecium; details: Enterococcus faecium, NCTC7171; Table 3.1, compounds of Schemes 2-4; read-out: E. faecium NCTC 7171 MIC

SMILES	MIC (S. aureus ATCC 29213)	MIC (E. faecium NCTC 7171)	antibacterial activity in words (SAR, ring A derivatives) (S. aureus ATCC 29213)
Nc1cncc(-c2nc(-c3ccc(Oc4ccc(C(F)(F)F)cc4)cc3)no2)c1 [Compound 122b]	> 128 µg/mL	> 128 µg/mL	–
Nc1cncc(-c2nc(-c3ccc(Oc4ccc(F)cc4)cc3)no2)c1 [Compound 122c]	> 128 µg/mL	128 µg/mL (≈ 367 µM)	–
FC(F)(F)c1ccc(Oc2ccc(-c3noc(-c4n[nH]c5ccccc45)n3)cc2)cc1 [Compound 123b]	> 128 µg/mL	> 128 µg/mL	–
Fc1ccc(Oc2ccc(-c3noc(-c4n[nH]c5ccccc45)n3)cc2)cc1 [Compound 123c]	> 128 µg/mL	16 µg/mL (≈ 43 µM)	–
FC(F)(F)c1ccc(Oc2ccc(-c3noc(-c4c[nH]c5ncccc45)n3)cc2)cc1 [Compound 125b]	> 128 µg/mL	32 µg/mL (≈ 75.8 µM)	–
Fc1ccc(Oc2ccc(-c3noc(-c4c[nH]c5ncccc45)n3)cc2)cc1 [Compound 125c]	> 128 µg/mL	64 µg/mL (≈ 172 µM)	–
Nc1c[nH]c(-c2nc(-c3ccc(Oc4ccc(F)cc4)cc3)no2)c1 [Compound 126c]	128 µg/mL (≈ 381 µM)	64 µg/mL (≈ 190 µM)	No activity
Fc1ccc(Oc2ccc(-c3noc(-c4cc[nH]c4)n3)cc2)cc1 [Compound 127c]	> 128 µg/mL	> 128 µg/mL	No activity

Now from value to compound, other results behind:

MIC (S. aureus ATCC 29213)	MIC (E. faecium NCTC 7171)	SMILES	antibacterial activity in words (SAR, ring A derivatives) (S. aureus ATCC 29213)
> 128 µg/mL	64 µg/mL (≈ 181 µM)	c1ccc(Oc2ccc(-c3noc(-c4ccc5[nH]ncc5c4)n3)cc2)cc1 [Compound 124a]	No activity
> 128 µg/mL	> 128 µg/mL	c1ccc(Oc2ccc(-c3noc(C4CCOCC4)n3)cc2)cc1 [Compound 131a]	–
≥ 32 µg/mL	32 µg/mL (≈ 103 µM)	NCCCCc1nc(-c2ccc(Oc3ccccc3)cc2)no1 [Compound 137a]	–
